Values after ≈ are worked out from the molar mass of the structure shown.
System: Candida albicans
Assay: Antifungal activity against Candida albicans after 12 hrs by agar dilution method
Assay type: functional

SMILES	MIC [µM]
CCCCC(CC)C1NC(=O)c2ccccc2N1 (racemic)	10.1 (≈ 2.49 µg/mL)
Cc1nc2ccccc2c(=O)[nH]1	15.6 (≈ 2.5 µg/mL)
CCCCC(CC)c1nc2ccccc2c(=O)[nH]1 (racemic)	10.2 (≈ 2.49 µg/mL)
CC(=O)N1CCN(c2ccc(OCC3COC(Cn4ccnc4)(c4ccc(Cl)cc4Cl)O3)cc2)CC1 (centres undefined) [KETOCONAZOLE]	0.2 (≈ 0.106 µg/mL)
Oc1nc(Cc2ccccc2)nc2ccccc12	10.6 (≈ 2.5 µg/mL)

The next lines start with the values.

MIC [µM]	SMILES
1.3 (≈ 0.318 µg/mL)	CCCC[C@H](CC)c1nc2ccccc2c(=O)[nH]1
5	CCCC[C@H](CC)C1NC(=O)c2ccccc2N1 (mixture of isomers)
2.5	CCCC[C@@H](CC)C1NC(=O)c2ccccc2N1 (mixture of isomers)
2.5 (≈ 0.611 µg/mL)	CCCC[C@@H](CC)c1nc2ccccc2c(=O)[nH]1
